Results: patent US20090082203A1, “INSECTICIDAL BIS(SUBSTITUTED PHENYL)-1-{[4-(SATURATED HETEROCYCLYL-SUBSTITUTED)PHENYLMETHYL]- (4-PIPERIDYL)}METHANE DERIVATIVES” (priority 2004, published 2009)

Tested on: tobacco budworm (Heliothis virescens [Fabricius])
Test: surface-treated diet test against tobacco budworm
Type: in vivo
Conditions: 0.25 millimolar on the surface of the diet, second instar larvae, five-day exposure; for Percent Mortality: compared to the total number of insects infested; for Percent Growth Inhibition: inhibition of insect weight relative to untreated controls
Procedure: Candidate insecticides were evaluated for activity against the tobacco budworm (Heliothis virescens [Fabricius]) in a surface-treated diet test.
In this test one mL of molten (65-70° C.) wheat germ-based artificial diet was pipetted into each well of a four by six (24 well) multi-well plate (ID# 430345-15.5 mm dia.×17.6 mm deep; Corning Costar Corp., One Alewife Center, Cambridge, Mass. 02140). The diet was allowed to cool to ambient temperature before treatment with candidate insecticide.
For a determination of insecticidal activity, solutions of the candidate insecticides were prepared for testing using a Packard 204DT Multiprobe® Robotic System (Packard Instrument Company, 800 Research Parkway, Meriden, Conn. 06450), in which the robot first diluted a standard 50 millimolar DMSO solution of candidate insecticide with a 1:1 water/acetone solution (V/V) in a ratio of 1:7 stock solution to water/acetone. The robot subsequently pipetted 40 microliters of the so-prepared solution onto the surface of the diet in each of three wells in the 24 multi-well plate. The process was repeated with solutions of seven other candidate insecticides. Once treated, the contents of the multi-well plate were allowed to dry, leaving 0.25 millimoles of candidate insecticide on the surface of the diet, or a concentration of 0.25 millimolar. Appropriate untreated controls containing only DMSO on the diet surface were also included in this test.
For evaluations of the insecticidal activity of a candidate insecticide at varying rates of application, the test was established as described above using sub-multiples of the standard 50 millimolar DMSO solution of candidate insecticide. For example, the standard 50 millimolar solution was diluted by the robot with DMSO to give 5, 0.5, 0.05, 0.005, 0.0005 millimolar, or more dilute solutions of the candidate insecticide. In these evaluations there were six replicates of each rate of application placed on the surface of the diet in the 24 multi-well plate, for a total of four rates of application of candidate insecticide in each plate.
In each well of the test plate was placed one second instar tobacco budworm larvae, each weighing approximately five milligrams. After the larvae were placed in each well, the plate was sealed with clear polyfilm adhesive tape. The tape over each well was perforated to ensure an adequate air supply. The plates were then held in a growth chamber at 25° C. and 60% relative humidity for five days (light 14 hours/day).
After the five-day exposure period insecticidal activity for each rate of application of candidate insecticide was assessed as percent inhibition of insect weight relative to the weight of insects from untreated controls, and percent mortality when compared to the total number of insects infested.
The test compounds of formula I are identified by numbers that correspond to those in Table 1.

## [O-][N+]1(Cc2ccc(C3OCC=CCO3)cc2)CCC(C(O)(c2ccc(OC(F)(F)F)cc2)c2ccc(OC(F)(F)F)cc2)CC1 (centres unmarked) [Compound 63]
  Percent Mortality: 100%
  Percent Growth Inhibition: 100%

## [O-][N+]1(Cc2ccc(OCC3(c4ccccc4)OCCO3)cc2)CCC(C(O)(c2ccc(OC(F)(F)F)cc2)c2ccc(OC(F)(F)F)cc2)CC1 (centres unmarked) [Compound 185]
  Percent Mortality: 100%
  Percent Growth Inhibition: 100%

## O=C(NCC1COC(c2ccc(CN3CCC(C(O)(c4ccc(OC(F)(F)F)cc4)c4ccc(OC(F)(F)F)cc4)CC3)cc2)O1)OCc1ccccc1 (centres unmarked) [Compound 95]
  Percent Mortality: 100%
  Percent Growth Inhibition: 100%

## CC1(C)CCOC(c2ccc(CN3CCC(C(O)(c4ccc(OC(F)(F)F)cc4)c4ccc(OC(F)(F)F)cc4)CC3)cc2)O1 (centres unmarked) [Compound 69]
  Percent Mortality: 100%
  Percent Growth Inhibition: 100%

## OC(c1ccc(OC(F)(F)F)cc1)(c1ccc(OC(F)(F)F)cc1)C1CCN(Cc2ccc(C3OCC(c4ccccc4)O3)cc2)CC1 (centres unmarked) [Compound 53]
  Percent Mortality: 100%
  Percent Growth Inhibition: 100%

## CC1COC(COc2ccc(CN3CCC(C(O)(c4ccc(OC(F)(F)F)cc4)c4ccc(OC(F)(F)F)cc4)CC3)cc2)O1 (centres unmarked) [Compound 193]
  Percent Mortality: 100%
  Percent Growth Inhibition: 100%

## CC1(C)COC(c2ccc(CN3CCC(C(O)(c4ccc(OC(F)(F)F)cc4)c4ccc(OC(F)(F)F)cc4)CC3)cc2)O1 (centres unmarked) [Compound 111]
  Percent Mortality: 100%
  Percent Growth Inhibition: 100%

## [O-][N+]1(Cc2ccc(C3OCCO3)c(F)c2)CCC(C(O)(c2ccc(OC(F)(F)F)cc2)c2ccc(OC(F)(F)F)cc2)CC1 (centres unmarked) [Compound 175]
  Percent Mortality: 100%
  Percent Growth Inhibition: 100%

## CC1(C)OCC(COc2ccc(C[N+]3([O-])CCC(C(O)(c4ccc(OC(F)(F)F)cc4)c4ccc(OC(F)(F)F)cc4)CC3)cc2)O1 (centres unmarked) [Compound 190, bis[4-(trifluoromethoxy)phenyl][1-({4-[(2,2-dimethyl-(1,3-dioxolan-4-yl))methoxy]phenyl}methyl)(4-piperidyl)]methan-1-ol, N-oxide]
  Percent Mortality: 100%
  Percent Growth Inhibition: 100%

## [O-][N+]1(Cc2ccc(C3OCC(CN4CCCC4)O3)cc2)CCC(C(O)(c2ccc(OC(F)(F)F)cc2)c2ccc(OC(F)(F)F)cc2)CC1 (centres unmarked) [Compound 110]
  Percent Mortality: 100%
  Percent Growth Inhibition: 100%

## OC(c1ccc(OC(F)(F)F)cc1)(c1ccc(OC(F)(F)F)cc1)C1CCN(Cc2ccc(C3OCCO3)c(C(F)(F)F)c2)CC1 [Compound 172]
  Percent Mortality: 100%
  Percent Growth Inhibition: 100%

## [O-][N+]1(Cc2ccc(C3OCC4OC4CO3)cc2)CCC(C(O)(c2ccc(OC(F)(F)F)cc2)c2ccc(OC(F)(F)F)cc2)CC1 (centres unmarked) [Compound 105]
  Percent Mortality: 100%
  Percent Growth Inhibition: 100%

## OC(c1ccc(OC(F)(F)F)cc1)(c1ccc(OC(F)(F)F)cc1)C1CCN(Cc2ccc(OCC3OCCCO3)cc2)CC1 [Compound 199, bis[4-(trifluoromethoxy)-phenyl](1-{[4-(1,3-dioxan-2-ylmethoxy)phenyl]methyl}(4-piperidyl))methan-1-ol]
  Percent Mortality: 100%
  Percent Growth Inhibition: 100%

## CC1COC(c2ccc(C[N+]3([O-])CCC(C(O)(c4ccc(OC(F)(F)F)cc4)c4ccc(OC(F)(F)F)cc4)CC3)cc2)O1 (centres unmarked) [Compound 9]
  Percent Mortality: 100%
  Percent Growth Inhibition: 100%

## OC(c1ccc(OC(F)(F)F)cc1)(c1ccc(OC(F)(F)F)cc1)C1CCN(Cc2ccc(C3OCCS3)cc2)CC1 (centres unmarked) [Compound 17]
  Percent Mortality: 100%
  Percent Growth Inhibition: 100%

## [O-][N+]1(Cc2ccc(CC3OCCO3)cc2)CCC(C(O)(c2ccc(OC(F)(F)F)cc2)c2ccc(OC(F)(F)F)cc2)CC1 (centres unmarked) [Compound 184]
  Percent Mortality: 100%
  Percent Growth Inhibition: 100%

## CC1COC(c2ccc(C[N+]3([O-])CCC(C(O)(c4ccc(OC(F)(F)F)cc4)c4ccc(OC(F)(F)F)cc4)CC3)cc2F)O1 (centres unmarked) [Compound 180]
  Percent Mortality: 100%
  Percent Growth Inhibition: 100%

## C=CCOCC1COC(c2ccc(CN3CCC(C(O)(c4ccc(OC(F)(F)F)cc4)c4ccc(OC(F)(F)F)cc4)CC3)cc2)O1 (centres unmarked) [Compound 91]
  Percent Mortality: 100%
  Percent Growth Inhibition: 100%

## CC1(C)OCC(c2ccc(C[N+]3([O-])CCC(C(O)(c4ccc(OC(F)(F)F)cc4)c4ccc(OC(F)(F)F)cc4)CC3)cc2)O1 (centres unmarked) [Compound 77]
  Percent Mortality: 100%
  Percent Growth Inhibition: 100%

## CC1(C)OC(c2ccc(CN3CCC(C(O)(c4ccc(OC(F)(F)F)cc4)c4ccc(OC(F)(F)F)cc4)CC3)cc2)OC1(C)C [Compound 122]
  Percent Mortality: 100%
  Percent Growth Inhibition: 100%

## CC1(C)OCC(c2ccc(CN3CCC(C(O)(c4ccc(OC(F)(F)F)cc4)c4ccc(OC(F)(F)F)cc4)CC3)cc2)O1 (centres unmarked) [Compound 76]
  Percent Mortality: 100%
  Percent Growth Inhibition: 100%

## CN(C)C(=O)N1CCSC1c1ccc(CN2CCC(C(O)(c3ccc(OC(F)(F)F)cc3)c3ccc(OC(F)(F)F)cc3)CC2)cc1 (centres unmarked) [Compound 73]
  Percent Mortality: 100%
  Percent Growth Inhibition: 100%

## CN1CCN(C)C1c1ccc(CN2CCC(C(O)(c3ccc(OC(F)(F)F)cc3)c3ccc(OC(F)(F)F)cc3)CC2)cc1 [Compound 25]
  Percent Mortality: 100%
  Percent Growth Inhibition: 100%

## [O-][N+]1(Cc2ccc(C3O[C@@H]4CCCC[C@H]4O3)cc2)CCC(C(O)(c2ccc(OC(F)(F)F)cc2)c2ccc(OC(F)(F)F)cc2)CC1 (relative stereo) [Compound 128]
  Percent Mortality: 100%
  Percent Growth Inhibition: 100%

## COc1ccc(C2(COc3ccc(CN4CCC(C(O)(c5ccc(OC(F)(F)F)cc5)c5ccc(OC(F)(F)F)cc5)CC4)cc3)OCCO2)cc1 [Compound 192]
  Percent Mortality: 100%
  Percent Growth Inhibition: 100%

## OC(c1ccc(OC(F)(F)F)cc1)(c1ccc(OC(F)(F)F)cc1)C1CCN(Cc2ccc(C3(c4cccc(Cl)c4)OCCO3)cc2)CC1 [Compound 85]
  Percent Mortality: 100%
  Percent Growth Inhibition: 100%

## [O-][N+]1(Cc2ccc(OCC3OCCO3)cc2)CCC(C(O)(c2ccc(OC(F)(F)F)cc2)c2ccc(OC(F)(F)F)cc2)CC1 (centres unmarked) [Compound 188]
  Percent Mortality: 100%
  Percent Growth Inhibition: 100%

## CCCC1COC(c2ccc(CN3CCC(C(O)(c4ccc(OC(F)(F)F)cc4)c4ccc(OC(F)(F)F)cc4)CC3)cc2)O1 (centres unmarked) [Compound 72]
  Percent Mortality: 100%
  Percent Growth Inhibition: 100%

## OC(c1ccc(OC(F)(F)F)cc1)(c1ccc(OC(F)(F)F)cc1)C1CCN(Cc2ccc(C3(c4ccc(Cl)nc4)OCCO3)cc2)CC1 [Compound 83]
  Percent Mortality: 0%
  Percent Growth Inhibition: 31%

## OC(c1ccc(OC(F)(F)F)cc1)(c1ccc(OC(F)(F)F)cc1)C1CCN(Cc2ccc(C3SCCS3)cc2)CC1 [Compound 15]
  Percent Mortality: 100%
  Percent Growth Inhibition: 100%

## OC(c1ccc(OC(F)(F)F)cc1)(c1ccc(OC(F)(F)F)cc1)C1CCN(Cc2ccc(C3OCC4(CC4)CO3)cc2)CC1 [Compound 45]
  Percent Mortality: 100%
  Percent Growth Inhibition: 100%

## CC1CCOC(c2ccc(CN3CCC(C(O)(c4ccc(OC(F)(F)F)cc4)c4ccc(OC(F)(F)F)cc4)CC3)cc2)O1 (centres unmarked) [Compound 47]
  Percent Mortality: 67%
  Percent Growth Inhibition: 100%

## CC1COC(c2ccc(CN3CCC(C(O)(c4ccc(OC(F)(F)F)cc4)c4ccc(OC(F)(F)F)cc4)CC3)cc2)O1 (centres unmarked) [Compound 3]
  Percent Mortality: 100%
  Percent Growth Inhibition: 100%

## [O-][N+]1(Cc2ccc(C3OCC(COc4ccccc4)O3)cc2)CCC(C(O)(c2ccc(OC(F)(F)F)cc2)c2ccc(OC(F)(F)F)cc2)CC1 (centres unmarked) [Compound 94]
  Percent Mortality: 100%
  Percent Growth Inhibition: 100%
